According to patent US20160326143A1, “COMPOUNDS AND USES” (AstraZeneca AB, priority 2015, published 2016):

Target: human recombinant purified LTC4 synthase (Homo sapiens (Human), UniProt Q16873)
Assay: not given
Details: read-out: hLTC4 synthase IC50; Test B (Examples 62-65); substrate LTA4 methyl ester, product detected by LCMSMS; median of at least two determinations

Sequence of human recombinant purified LTC4 synthase (Q16873 whole entry): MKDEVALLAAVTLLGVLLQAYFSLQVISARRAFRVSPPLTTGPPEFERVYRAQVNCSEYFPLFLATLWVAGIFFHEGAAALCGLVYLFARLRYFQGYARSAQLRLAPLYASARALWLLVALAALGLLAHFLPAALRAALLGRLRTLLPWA

| IC50 | SMILES |
| --- | --- |
| 0.658 nM | COc1cc(N(CC(C)C)c2cc(C(F)(F)F)ccc2F)cnc1C(=O)[C@H]1C[C@@H]1C(=O)O [Example 65, (1S,2S)-2-[(5-{[2-Fluoro-5-(trifluoromethyl)phenyl](2-methylpropyl)amino}-3-methoxypyridin-2-yl)carbonyl]cyclopropanecarboxylic acid] |
| 0.248 nM | COc1nc(N(CC(C)(C)F)c2cc(C(F)(F)F)ccc2F)cnc1C(=O)[C@H]1C[C@@H]1C(=O)O [Example 63, (1S,2S)-2-[(5-{(2-Fluoro-2-methylpropyl)[2-fluoro-5-(trifluoromethyl)phenyl]amino}-3-methoxypyrazin-2-yl)carbonyl]cyclopropanecarboxylic acid] |

Target: Recombinant human LTC4 synthase (Homo sapiens (Human), UniProt Q16873)
Sequence (Q16873 whole entry): as above
Assay: In vitro hLTC4 synthase enzyme assay (Test A)
Type: biochemical
Details: Test A (Examples 1-61); substrate LTA4, LTC4 detected by HTRF; median of at least two determinations
Method: In Vitro hLTC4 Synthase Enzyme Assay (Test A)
Recombinant human LTC4 synthase is expressed in Piccia pastoralis and the purified enzyme is dissolved in 25 mM tris-buffer pH 7.8 supplemented with 0.1 mM glutathione (GSH) and stored at −80° C.
The buffer is used as background. Runs are performed in duplicates.
The reaction is stopped after 1 min by addition of double the reaction volume of a stop solution (MeOH:H2O:acetic acid 70:30:1).
After 15 fold dilution in PBS, LTC4 formation is detected with LTC4 HTRF kit (Cisbio, cat. No 64LC4PEC) and a fluorescence reader. Typically 6 μL of sample is mixed with 3 μL of each of the HTRF reagents d2 and k and analyzed as described in the kit manual.

| IC50 | SMILES |
| --- | --- |
| 636 nM | O=C(O)C1CC1C(=O)c1ccc(N(Cc2ccc(Cl)cc2)CC2CC2)cn1 (stereo not shown) [Example 55, 2-(5-((4-Chlorobenzyl)(cyclopropylmethyl)amino)picolinoyl)cyclopropanecarboxylic acid] |
| 50 nM | COc1nc(C(=O)C2CC2C(=O)O)ncc1N(CC1CC1)c1cccc2ccccc12 (stereo not shown) [Example 57, 2-(5-((Cyclopropylmethyl)(naphthalen-1-yl)amino)-4-methoxypyrimidine-2-carbonyl)cyclopropanecarboxylic acid] |
| 96 nM | COc1cc(N(CC2CC2)c2cccc3ccccc23)cnc1C(=O)C1CC1c1nnn[nH]1 (stereo not shown) [Example 60, (2-(1H-Tetrazol-5-yl)cyclopropyl)(5-((cyclopropylmethyl)(naphthalen-1-yl)amino)-3-methoxypyridin-2-yl)methanone] |
| 39 nM | COc1cc(N(CC2CC2)c2ccc(F)c3ccccc23)cnc1C(=O)C1CC1c1nnn[nH]1 (stereo not shown) [Example 61, (2-(1H-Tetrazol-5-yl)cyclopropyl)(5-((cyclopropylmethyl)(4-fluoronaphthalen-1-yl)amino)-3-methoxypyridin-2-yl)methanone] |

The next lines start with the compound.

| SMILES | IC50 |
| --- | --- |
| COc1cc(N(Cc2cccc(C(F)(F)F)c2F)CC2CC2)cnc1C(=O)C1CC1C(=O)O (stereo not shown) [Example 31, 2-(5-((Cyclopropylmethyl)(2-fluoro-3-(trifluoromethyl)benzyl)amino)-3-methoxypicolinoyl)cyclopropanecarboxylic acid] | 331 nM |
| COc1cc(N(Cc2c(C)ccc3ccccc23)CC2CC2)cnc1C(=O)C1CC1C(=O)O (stereo not shown) [Example 23, 2-(5-((Cyclopropylmethyl)((2-methylnaphthalen-1-yl)methyl)amino)-3-methoxypicolinoyl)cyclopropanecarboxylic acid] | 1840 nM |
| COc1cc(N(CC2CC2)c2ccc(C)c(C)c2)ccc1C(=O)C1CC1C(=O)O (stereo not shown) [Example 50, 2-(4-((Cyclopropylmethyl)(3,4-dimethylphenyl)amino)-2-methoxybenzoyl)cyclopropanecarboxylic acid] | 75 nM |
| COc1cc(N(CC2CC2)c2ccc3cccc4c3c2CC4)cnc1C(=O)C1CC1C(=O)O (stereo not shown) [Example 38, 2-(5-((Cyclopropylmethyl)(1,2-dihydroacenaphthylen-3-yl)amino)-3-methoxypicolinoyl)cyclopropanecarboxylic acid] | 31 nM |
| COc1cc(N(Cc2c(F)ccc(C)c2F)CC2CC2)cnc1C(=O)C1CC1C(=O)O (stereo not shown) [Example 32, 2-(5-((Cyclopropylmethyl)(2,6-difluoro-3-methylbenzyl)amino)-3-methoxypicolinoyl)cyclopropanecarboxylic acid] | 1670 nM |
| COc1cc(N(CC2CC2)c2cccc3ccccc23)cnc1C(=O)C1CC1C(=O)O (stereo not shown) [Example 9, 2-(5-((Cyclopropylmethyl)(naphthalen-1-yl)amino)-3-methoxypicolinoyl)cyclopropanecarboxylic acid] | 24 nM |
| COc1ccc(S(=O)(=O)NC(=O)C2CC2C(=O)c2ncc(N(CC3CC3)c3ccc(Cl)cc3)cc2OC)cc1 (stereo not shown) [Example 41, 2-(5-((4-Chlorophenyl)(cyclopropylmethyl)amino)-3-methoxypicolinoyl)-N-((4-methoxyphenyl)sulfonyl)-cyclopropanecarboxamide] | 81 nM |
| COc1cc(N(CC2CC2)c2ccc(C)c3ncccc23)cnc1C(=O)C1CC1C(=O)O (stereo not shown) [Example 8, 2-(5-((Cyclopropylmethyl)(8-methylquinolin-5-yl)amino)-3-methoxypicolinoyl)cyclopropanecarboxylic acid] | 279 nM |
| COc1cc(N(CC2CC2)c2ccc(C(F)(F)F)c3cccnc23)ccc1C(=O)C1CC1C(=O)O (stereo not shown) [Example 53, 2-(4-((Cyclopropylmethyl)(5-(trifluoromethyl)quinolin-8-yl)amino)-2-methoxybenzoyl)cyclopropanecarboxylic acid] | 152 nM |
| COc1cc(N(CC2CC2)c2ccc(C)c3ccccc23)ccc1C(=O)C1CC1C(=O)O (stereo not shown) [Example 45, 2-(4-((Cyclopropylmethyl)(4-methylnaphthalen-1-yl)amino)-2-methoxybenzoyl)cyclopropanecarboxylic acid] | 62 nM |
